Experiment: Heat-induced release of drug surrogate (alcohol 11 or amine 12) from linkers in methanol, HPLC quantification
Format: physicochemical
Details: for Heat-induced release of 11 or 12 (result in words, spans all time columns) / % release after heating (55° C.) at time (h) 0.25 / % release after heating (55° C.) at time (h) 0.5 / % release after heating (55° C.) at time (h) 0.75 / % release after heating (55° C.) at time (h) 1 / % release after heating (55° C.) at time (h) 2 / % release after heating (55° C.) at time (h) 3 / % release after heating (55° C.) at time (h) 24 h: methanol ca. 0.01 M; for Heat-induced release of 11 or 12 (result in words, spans all time columns): 55° C. up to 24 h and rt 3.5 h; for % release after heating (55° C.) at time (h) 0.25 / % release after heating (55° C.) at time (h) 0.5 / % release after heating (55° C.) at time (h) 0.75 / % release after heating (55° C.) at time (h) 1 / % release after heating (55° C.) at time (h) 2 / % release after heating (55° C.) at time (h) 3 / % release after heating (55° C.) at time (h) 24 h / % release at rt, 3.5 h: release of alcohol 11, mean ± SD, n = 3; for % release after heating (55° C.) at time (h) 0.25: 0.25 h; for % release after heating (55° C.) at time (h) 0.5: 0.5 h; for % release after heating (55° C.) at time (h) 0.75: 0.75 h; for % release after heating (55° C.) at time (h) 1: 1 h; for % release after heating (55° C.) at time (h) 2: 2 h; for % release after heating (55° C.) at time (h) 3: 3 h; for % release at rt, 3.5 h: room temperature control
Method: Methanol (MeOH) was used as a solvent to provide a protic solvent capable of hydrogen bonding. The amine-containing linker compounds, formed on Boc-deprotection with basic work-up (compounds 4.1-3, 8.1-2, 9, 10), were diluted with MeOH (2 mL, ˜0.01 M). An aliquot was removed to serve as a room temperature control. Heat was applied to the MeOH solutions using an oil bath. The temperature was set at 55° C., and the solutions were heated for a total of 24 h. Aliquots were taken at t=0.25, 0.50, 0.75, 1, 2, 3, and 24 h into the reaction. On sampling, the aliquots were, immediately stored at −5° C. On completion of the experiment, the samples were warmed to room temperature, filtered and dried under reduced pressure (3.5 h duration) and then returned to −5° C. Each sample was then removed individually from the freezer and diluted with 400 μL CH2Cl2 before injecting 50 μL into an HPLC fitted with a normal phase silica column (Waters Nova-Pak HR Silica, 6 μm, 60 Å, 3.9×300 mm prep column; 1% MeOH in CH2Cl2 with 0.1% Et3N). HPLC analysis enabled quantification of released 11 or 12. Schemes 3 and 4 depict the intramolecular cyclization processes to release the drug surrogate (e.g., 11 or 12). […] FIG. 12 graphically illustrates the heat-induced release of alcohol 11 (Table 1). The substrates were heated as methanol solutions (ca. 0.01 M) at 55° C. for the indicated times as described above.

| SMILES | Heat-induced release of 11 or 12 (result in words, spans all time columns) | % release after heating (55° C.) at time (h) 0.25 | % release after heating (55° C.) at time (h) 0.5 | % release after heating (55° C.) at time (h) 0.75 | % release after heating (55° C.) at time (h) 1 | % release after heating (55° C.) at time (h) 2 | % release after heating (55° C.) at time (h) 3 | % release after heating (55° C.) at time (h) 24 h | % release at rt, 3.5 h |
| --- | --- | --- | --- | --- | --- | --- | --- | --- | --- |
| C=CCNCCCC(=O)NCCc1c2ccccc2cc2ccccc12 [Compound 9, 4-(allylamino)-N-(2-(anthracen-9-yl)ethyl)butanamide] | no reaction | – | – | – | – | – | – | – | – |
| C=CCNCCCC(=O)OCCc1c2ccccc2cc2ccccc12 [Compound 4.1, 2-(anthracen-9-yl)ethyl 4-(allylamino)butanoate] | – | 24.6 ± 3.1% | 29.2 ± 1.7% | 33.4 ± 2.5% | 36.6 ± 2.6% | 44.4 ± 3.7% | 50.2 ± 4.2% | 94.0 ± 1.8% | 20.2 ± 3.1% |
| C=CCNCCCOC(=O)OCCc1c2ccccc2cc2ccccc12 [Compound 8.2, 3-(allylamino)propyl(2-(anthracen-9-yl)ethyl) carbonate] | – | 12.0 ± 0.8% | 14.1 ± 0.7% | 16.4 ± 1.0% | 18.0 ± 0.7% | 24.8 ± 1.1% | 29.0 ± 1.0% | 62.1 ± 5.6% | 9.6 ± 1.1% |
| C=CCNCCC(C)(C)COC(=O)OCCc1c2ccccc2cc2ccccc12 [Compound 23, 4-(allylamino)-2,2-dimethylbutyl(2-(anthracen-9-yl)ethyl) carbonate] | – | 1.8 ± 0.4% | 2.3 ± 0.5% | 2.9 ± 0.1% | 4.0 ± 0.3% | 5.7 ± 1.0% | 7.6 ± 0.3% | 36.6 ± 0.3% | 0.7 ± 0.1% |
| C=CCNCCOC(=O)OCCc1c2ccccc2cc2ccccc12 [Compound 8.1, 2-(allylamino)ethyl(2-(anthracen-9-yl)ethyl) carbonate] | – | 23.5 ± 1.9% | 28.9 ± 1.7% | 32.4 ± 4.0% | 36.7 ± 4.8% | 48.3 ± 5.7% | 57.0 ± 6.9% | 68.9 ± 3.0% | 18.8 ± 2.3% |
| C=CCNCCNC(=O)OCCc1c2ccccc2cc2ccccc12 [Compound 10, 2-(anthracen-9-yl)ethyl(2-(allylamino)ethyl)carbamate] | no reaction | – | – | – | – | – | – | – | – |
| C=CCNCCC(C)(C)CCC(=O)OCCc1c2ccccc2cc2ccccc12 [Compound 20, 2-(anthracen-9-yl)ethyl 6-(allylamino)-4,4-dimethylhexanoate] | – | 2.0 ± 0.1% | 2.2 ± 0.1% | 2.7 ± 0.1% | 3.3 ± 0.4% | 4.1 ± 0.3% | 5.2 ± 0.8% | 24.7 ± 3.9% | 1.8 ± 0.2% |
| C=CCNCCCCCC(=O)OCCc1c2ccccc2cc2ccccc12 [Compound 4.3, 2-(anthracen-9-yl)ethyl 6-(allylamino)hexanoate] | – | 2.1 ± 1.6% | 1.8 ± 1.9% | 2.1 ± 2.2% | 2.1 ± 1.8% | 3.1 ± 2.9% | 3.6 ± 3.0% | 10.4 ± 3.8% | 1.7 ± 2.0% |
| C=CCNCCCCC(=O)OCCc1c2ccccc2cc2ccccc12 [Compound 4.2, 2-(anthracen-9-yl)ethyl 5-(allylamino)pentanoate] | – | 20.9 ± 1.9% | 21.6 ± 3.5% | 23.0 ± 3.0% | 25.0 ± 2.1% | 30.5 ± 1.3% | 36.5 ± 1.2% | 75.7 ± 3.2% | 17.0 ± 4.5% |

Reference: patent US9849193B2, “Nanoparticles for drug delivery” (University of Louisville Research Foundation, Inc., priority 2013, dated 2017)
